US20180353603A1, “Combination therapy including tumor associated antigen binding antibodies” (CT Atlantic Ltd., priority 2011, published 2018)

System: metastatic melanoma
Assay: Clinical course of patient ZH311 after NY-ESO-1 vaccination and Ipilimumab
Format: in vivo
Description: A patient ZH311 was diagnosed in 2001 with metastatic melanoma. The tumor expressed NY-ESO-1 and was serum-positive for NY-ESO-1.
Survival time after treatment with Ipilimumab was 3 years.

Ipilimumab: anti-CTLA4 antagonistic antibody
survival time after treatment with Ipilimumab (patient ZH311): 3 years | course of disease (patient ZH311, Ipilimumab starting in 2007 after NY-ESO-1 vaccination): stabilized course of disease | overall survival time (patient ZH311, since diagnosis 2001, NY-ESO-1 vaccination then Ipilimumab, peer group median 10 months): 10 years
